Results as given in US9365613B2, “Acylated 4-amidino- and -4-guanidinobenzylamines for inhibition of plasma kallikrein” (The Medicines Company (Leipzig) GmbH, priority 2003, dated 2016).

Experiments:
Format in all cases: biochemical
human factor XIIa = molecular target: T1, human factor XIIa (Homo sapiens, UniProt P00748); assay: Inhibitory constants for factor XIIa (substrate H-D-HHT-Gly-Arg-pNA, Chromozym XII); conditions: read-out: Ki F XIIa
T1 construct: purchased Haemochrom Diagnostica GmbH, Essen, Germany
T1 sequence (P00748 373-615 limits assumed, other chains not shown): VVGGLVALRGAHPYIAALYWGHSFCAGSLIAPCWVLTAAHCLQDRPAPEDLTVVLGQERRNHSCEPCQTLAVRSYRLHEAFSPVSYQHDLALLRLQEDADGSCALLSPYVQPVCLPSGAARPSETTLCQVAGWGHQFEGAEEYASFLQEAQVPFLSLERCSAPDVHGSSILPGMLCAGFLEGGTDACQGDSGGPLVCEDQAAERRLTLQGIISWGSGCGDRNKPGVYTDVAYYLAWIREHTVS
Description: (§1) The inhibitory effect for the individual enzymes was determined in analogy with a method which has already been described (Stürzebecher et al., J. Med. Chem. 40, 3091-3099, 1997).
(§2) After 3 min, the reaction was terminated by adding 25 μl of acetic acid (50%) and the absorption at […] was determined using a Microplate Reader (Labsystems iEMS Reader MF). The Ki values were determined, in accordance with Dixon (Biochem. J. 55, 170-171, 1953), by means of linear regression and using a computer program. The Ki values are the mean of at least three determinations.
(§3) The inhibition of factor XIa and factor XIIa was determined in an analogous manner. When determining the inhibitory constants for human factor XIa (Haemochrom Diagnostica GmbH, Essen, Germany), H-D-Lys(Z)-Pro-Arg-pNA (Chromozym PCa, Roche Diagnostics GmbH, Mannheim, Germany) was used as the substrate.
H-D-HHT-Gly-Arg-pNA (Chromozym XII, Roche Diagnostics GmbH, Mannheim, Germany) was used as the substrate for measuring the inhibitory constants of human factor XIIa (Haemochrom Diagnostica GmbH, Essen, Germany).

plasma kallikrein (PK) = plasma kallikrein (PK) (Homo sapiens, UniProt P03952); assay: Determining the inhibitory constants: inhibition of PK (substrate Bzl-Pro-Phe-Arg-pNA); conditions: Tris buffer pH 8.0, 25° C.; mean of at least three determinations
Sequence of plasma kallikrein (PK) (P03952 391-638 limits assumed, species assumed): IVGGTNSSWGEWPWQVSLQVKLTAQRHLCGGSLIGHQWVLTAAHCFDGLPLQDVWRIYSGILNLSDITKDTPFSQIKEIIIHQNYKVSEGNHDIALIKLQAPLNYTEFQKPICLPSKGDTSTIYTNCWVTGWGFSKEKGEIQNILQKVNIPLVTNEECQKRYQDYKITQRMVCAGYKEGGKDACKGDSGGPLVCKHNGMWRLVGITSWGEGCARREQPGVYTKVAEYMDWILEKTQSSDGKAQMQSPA
Sequence of plasma kallikrein (PK) (P03952 20-390 partner limits assumed, species assumed): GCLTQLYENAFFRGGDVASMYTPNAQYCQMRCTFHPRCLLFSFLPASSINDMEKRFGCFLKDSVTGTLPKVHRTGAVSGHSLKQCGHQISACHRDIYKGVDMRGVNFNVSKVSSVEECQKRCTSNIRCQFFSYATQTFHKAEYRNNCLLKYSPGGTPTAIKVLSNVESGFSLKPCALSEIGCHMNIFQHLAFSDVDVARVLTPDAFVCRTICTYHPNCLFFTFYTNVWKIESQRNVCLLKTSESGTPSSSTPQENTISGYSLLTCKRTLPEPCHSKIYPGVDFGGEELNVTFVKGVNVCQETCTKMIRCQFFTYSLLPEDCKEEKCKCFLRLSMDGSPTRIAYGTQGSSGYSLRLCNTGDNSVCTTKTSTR
Description: as §1, §2

thrombin = thrombin (UniProt P00735); assay: Inhibitory constants for thrombin; conditions: read-out: Ki Thrombin
human factor XIa = molecular target: T2, human factor XIa (Homo sapiens, UniProt P03951); assay: Inhibitory constants for factor XIa (substrate H-D-Lys(Z)-Pro-Arg-pNA, Chromozym PCa); conditions: read-out: Ki F XIa
T2 construct: purchased Haemochrom Diagnostica GmbH, Essen, Germany
T2 sequence (P03951 388-625 limits assumed): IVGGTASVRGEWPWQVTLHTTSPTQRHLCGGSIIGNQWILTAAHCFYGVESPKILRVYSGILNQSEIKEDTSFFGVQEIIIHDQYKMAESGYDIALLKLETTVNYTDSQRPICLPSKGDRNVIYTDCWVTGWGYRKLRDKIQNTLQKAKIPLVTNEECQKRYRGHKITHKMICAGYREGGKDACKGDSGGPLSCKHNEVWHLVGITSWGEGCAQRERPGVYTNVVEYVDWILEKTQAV
T2 sequence (P03951 19-387 partner limits assumed): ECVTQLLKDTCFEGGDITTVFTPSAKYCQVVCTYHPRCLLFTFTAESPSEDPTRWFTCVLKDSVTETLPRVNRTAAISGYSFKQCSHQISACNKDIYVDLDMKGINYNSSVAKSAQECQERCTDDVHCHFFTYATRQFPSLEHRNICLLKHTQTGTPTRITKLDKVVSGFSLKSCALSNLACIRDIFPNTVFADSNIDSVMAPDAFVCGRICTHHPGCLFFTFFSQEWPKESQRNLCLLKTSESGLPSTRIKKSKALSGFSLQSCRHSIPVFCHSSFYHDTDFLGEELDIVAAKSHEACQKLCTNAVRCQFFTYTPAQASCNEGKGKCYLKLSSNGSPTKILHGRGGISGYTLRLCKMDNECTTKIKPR
Description: as §1, §2, §3

Row | Ki (human factor XIIa) [µM] | Ki (plasma kallikrein (PK)) [nM] | Ki (thrombin) [µM] | Ki (human factor XIa) [nM] | SMILES
1 | 17 | 16 | 2.3 | 15 | C[C@H](NC(=O)[C@@H](CO)NS(=O)(=O)Cc1ccc(C(=O)O)cc1)C(=O)NCc1ccc(C(=N)N)cc1 [Inhibitor 22]
2 | > 1000 | 29 | 120 | 170 | N=C(N)c1ccc(CNC(=O)[C@H](CO)NC(=O)[C@@H](CO)NS(=O)(=O)Cc2ccc(C(=O)O)cc2)cc1 [Inhibitor 23]
3 | 19 | 160 | 4.2 | 870 | COC(=O)c1ccc(CS(=O)(=O)N[C@H](CO)C(=O)N[C@@H](CO)C(=O)NCc2ccc(C(=N)N)cc2)cc1 [Inhibitor 24]
4 | 17 | 6300 | 8 | 6000 | N=C(N)c1ccc(CNC(=O)CNC(=O)[C@@H](CO)NS(=O)(=O)Cc2ccc(CN)cc2)cc1 [Inhibitor 25]
5 | 2.6 | 340 | 0.22 | 1400 | CC(C)(C)OC[C@@H](NS(=O)(=O)Cc1ccccc1)C(=O)NCC(=O)NCc1ccc(C(=N)N)cc1 [Inhibitor 26]
6 | 2 | 61 | 0.0021 | 30 | C[C@H](NC(=O)[C@@H](COC(C)(C)C)NS(=O)(=O)Cc1ccccc1)C(=O)NCc1ccc(C(=N)N)cc1 [Inhibitor 27]
7 | 0.49 | 6.5 | 0.002 | 36 | CC(C)(C)OC[C@@H](NS(=O)(=O)Cc1ccccc1)C(=O)N1CCC[C@H]1C(=O)NCc1ccc(C(=N)N)cc1 [Inhibitor 28]
8 | > 1000 | 910 | 6 | 390 | CC(C)(C)OC[C@@H](NS(=O)(=O)Cc1ccccc1)C(=O)N[C@@H](CC(=O)O)C(=O)NCc1ccc(C(=N)N)cc1 [Inhibitor 29]
9 | 19 | 360 | 2.6 | 79 | CC(C)(C)OC[C@@H](NS(=O)(=O)Cc1ccccc1)C(=O)N[C@@H](CCC(=O)O)C(=O)NCc1ccc(C(=N)N)cc1 [Inhibitor 30]
10 | 6.3 | 9.2 | 0.021 | 67 | CC(C)(C)OC[C@@H](NS(=O)(=O)Cc1ccccc1)C(=O)N[C@@H](CCC(N)=O)C(=O)NCc1ccc(C(=N)N)cc1 [Inhibitor 31]
11 | > 1000 | 8000 | > 1000 | 8200 | CC(C)(C)OC[C@@H](NS(=O)(=O)Cc1ccccc1)C(=O)NC(CC(=O)O)CC(=O)NCc1ccc(C(=N)N)cc1 (stereo partly shown) [Inhibitor 32]
12 | 4 | 22 | 0.0094 | 190 | CC(C)(C)OC[C@@H](NS(=O)(=O)Cc1ccccc1)C(=O)N[C@@H](CN)C(=O)NCc1ccc(C(=N)N)cc1 [Inhibitor 33]
13 | 0.93 | 25 | 0.37 | 310 | CC(C)(C)OC[C@@H](NS(=O)(=O)Cc1ccccc1)C(=O)N[C@@H](CNC(=O)OCc1ccccc1)C(=O)NCc1ccc(C(=N)N)cc1 [Inhibitor 34]
14 | 4.4 | 3.6 | 0.055 | 510 | CC(C)(C)OC[C@@H](NS(=O)(=O)Cc1ccccc1)C(=O)N[C@@H](CCCCN)C(=O)NCc1ccc(C(=N)N)cc1 [Inhibitor 35]
15 | 5.4 | 9.4 | 0.024 | 480 | CC(C)(C)OC[C@@H](NS(=O)(=O)Cc1ccccc1)C(=O)N[C@@H](CCCCNC(=O)OCc1ccccc1)C(=O)NCc1ccc(C(=N)N)cc1 [Inhibitor 36]
16 | 2.6 | 40 | 0.065 | 340 | CC(C)(C)OC[C@@H](NS(=O)(=O)Cc1ccccc1)C(=O)N[C@@H](CCCNC(=N)N)C(=O)NCc1ccc(C(=N)N)cc1 [Inhibitor 37]
17 | 17 | 44 | 0.019 | 400 | C[C@@H](OCc1ccccc1)[C@H](NC(=O)[C@@H](COC(C)(C)C)NS(=O)(=O)Cc1ccccc1)C(=O)NCc1ccc(C(=N)N)cc1 [Inhibitor 39]
18 | 6 | 52 | 0.047 | 200 | CC(C)(C)OC[C@@H](NS(=O)(=O)Cc1ccccc1)C(=O)N[C@@H](CO)C(=O)NCc1ccc(C(=N)N)cc1 [Inhibitor 40]
19 | 1.4 | 12 | 0.012 | 200 | CC(C)(C)OC[C@@H](NS(=O)(=O)Cc1ccccc1)C(=O)N[C@@H](COCc1ccccc1)C(=O)NCc1ccc(C(=N)N)cc1 [Inhibitor 41]
20 | > 1000 | 210 | 13 | 740 | CC(C)(C)OC[C@@H](NS(=O)(=O)Cc1ccccc1)C(=O)N[C@@H](CO)CC(=O)NCc1ccc(C(=N)N)cc1 [Inhibitor 42]
21 | 0.26 | 45 | – | 120 | N=C(N)c1ccc(CNC(=O)CNC(=O)[C@@H](CCc2ccccc2)NS(=O)(=O)Cc2ccc(N)cc2)cc1 [Inhibitor 78]
22 | 0.4 | 130 | – | 1100 | N=C(N)c1ccc(CNC(=O)CNC(=O)C(CCc2ccncc2)NS(=O)(=O)Cc2ccccc2)cc1 (stereo not shown) [Inhibitor 85]

Further lines, the molecule ahead of its results:

Row | SMILES | Ki (human factor XIIa) [µM] | Ki (plasma kallikrein (PK)) [nM] | Ki (thrombin) [µM] | Ki (human factor XIa) [nM]
23 | N=C(N)c1ccc(CNC(=O)CNC(=O)C(CO)NS(=O)(=O)Cc2ccccc2)cc1 (stereo not shown) [Inhibitor 1] | 16 | 1700 | 13 | 2200
24 | C[C@H](NC(=O)[C@@H](CO)NS(=O)(=O)Cc1ccccc1)C(=O)NCc1ccc(C(=N)N)cc1 [Inhibitor 2] | 9.2 | 70 | 0.11 | 110
25 | N=C(N)c1ccc(CNC(=O)C2CCCN2C(=O)C(CO)NS(=O)(=O)Cc2ccccc2)cc1 (stereo not shown) [Inhibitor 3] | 5.1 | 54 | 0.012 | 100
26 | N=C(N)c1ccc(CNC(=O)[C@H](CCC(N)=O)NC(=O)[C@@H](CO)NS(=O)(=O)Cc2ccccc2)cc1 [Inhibitor 6] | 25 | 47 | 0.49 | 130
27 | N=C(N)c1ccc(CNC(=O)[C@H](CN)NC(=O)[C@@H](CO)NS(=O)(=O)Cc2ccccc2)cc1 [Inhibitor 8] | 15 | 50 | 0.65 | 390
28 | N=C(N)c1ccc(CNC(=O)[C@H](CNC(=O)OCc2ccccc2)NC(=O)[C@@H](CO)NS(=O)(=O)Cc2ccccc2)cc1 [Inhibitor 9] | 13 | 42 | 6.9 | 280
29 | N=C(N)c1ccc(CNC(=O)[C@H](CCCCN)NC(=O)[C@@H](CO)NS(=O)(=O)Cc2ccccc2)cc1 [Inhibitor 10] | 21 | 16 | 4.3 | 890
30 | N=C(N)c1ccc(CNC(=O)[C@H](CCCCNC(=O)OCc2ccccc2)NC(=O)[C@@H](CO)NS(=O)(=O)Cc2ccccc2)cc1 [Inhibitor 11] | 15 | 3.5 | 0.18 | 300
31 | N=C(N)NCCC[C@H](NC(=O)[C@@H](CO)NS(=O)(=O)Cc1ccccc1)C(=O)NCc1ccc(C(=N)N)cc1 [Inhibitor 12] | 16 | 79 | 4.7 | 770
32 | C[C@@H](O)[C@H](NC(=O)[C@@H](CO)NS(=O)(=O)Cc1ccccc1)C(=O)NCc1ccc(C(=N)N)cc1 [Inhibitor 13] | 51 | 240 | 4 | 250
33 | C[C@@H](OCc1ccccc1)[C@H](NC(=O)[C@@H](CO)NS(=O)(=O)Cc1ccccc1)C(=O)NCc1ccc(C(=N)N)cc1 [Inhibitor 14] | 23 | 91 | 0.3 | 330
34 | N=C(N)c1ccc(CNC(=O)[C@H](CO)NC(=O)[C@@H](CO)NS(=O)(=O)Cc2ccccc2)cc1 [Inhibitor 15] | 80 | 160 | 14 | 300
35 | N=C(N)c1ccc(CNC(=O)[C@H](COCc2ccccc2)NC(=O)[C@@H](CO)NS(=O)(=O)Cc2ccccc2)cc1 [Inhibitor 16] | 9.8 | 25 | 0.48 | 300
36 | N=C(N)c1ccc(CNC(=O)[C@H](Cc2ccccc2)NC(=O)[C@@H](CO)NS(=O)(=O)Cc2ccccc2)cc1 [Inhibitor 18] | 0.97 | 21 | 1.6 | 920
37 | N=C(N)c1ccc(CNC(=O)[C@H](CCc2ccccc2)NC(=O)[C@@H](CO)NS(=O)(=O)Cc2ccccc2)cc1 [Inhibitor 19] | 2.8 | 48 | 1.2 | 84
38 | N=C(N)c1ccc(CNC(=O)CNC(=O)[C@@H](CO)NS(=O)(=O)Cc2ccc(C(=O)O)cc2)cc1 [Inhibitor 20] | > 1000 | 700 | 170 | 600
39 | COC(=O)c1ccc(CS(=O)(=O)N[C@H](CO)C(=O)NCC(=O)NCc2ccc(C(=N)N)cc2)cc1 [Inhibitor 21] | 42 | 4200 | 9.4 | 8100
